Experimental data from article PMC12707362, “Targeting Aurora Kinases as Essential Cell‐Cycle Regulators to Deliver Multi‐Stage Antimalarials Against Plasmodium Falciparum” (Angewandte Chemie (International Ed. in English), 2025).
Counter-ions that a name gives are not always drawn. Like-named read-outs stand apart in the source and are kept apart here.

Tests used:
[1] = test system: P. falciparum drug-sensitive NF54 (PfNF54) asexual intra-erythrocytic parasites; test: SYBR Green I proliferation assay, PfNF54 asexual blood stages; assay type: cell-based, Plasmodium falciparum; settings: read-out: Pf NF54 ABS IC50
From the text: Figure 1 Activity profile of Aur class anticancer inhibitors across the life cycle of Plasmodium falciparum parasites. a) Activity (IC50) of inhibitors (grouped based on specificity against human Aur) against P.falciparum drug‐sensitive (PfNF54) asexual intra‐erythrocytic parasites as measured with SYBR Green I fluorescence as an indicator of viability and proliferation. […] ABS, asexual blood stages of the parasite; HsAur, human Aur.
P. falciparum drug sensitive NF54 (PfNF54) and drug-resistant Dd2 (PfDd2, chloroquine, pyrimethamine and mefloquine resistant) strains were cultured in vitro in human O^+/A^+ erythrocytes (5% hematocrit) in complete medium at 2–5% parasitemia, 37 °C, shaking at 60 rpm under hypoxic conditions (90% N2, 5% O2 and 5% CO2). […] Gametocytogenesis was followed with daily media changes (including glucose) and ABS parasites removed with 50 mM N-acetylglucosamine (day 1–4 for stage II/III; days 3–7 for stage IV/V).
All inhibitors were dissolved in dimethyl sulfoxide (DMSO). […] Ring-stage ABS parasites (1% parasitemia, 1% hematocrit) were treated with compounds for 96 h at 37 °C with chloroquine disulphate (0.5 μM) as positive drug control. […] Luciferase activity was determined using a non-lysing D-luciferin substrate (1 mM in 0.1 M citrate buffer, pH 5.5, 100 μL) and bioluminescence was detected with a GloMax® - Multi Detection System with Instinct® software.

[2] = test system: late-stage (stage IV/V) gametocytes, P. falciparum 3D7elo1-pfs16-CBG99; test: Luciferase reporter assay, late-stage gametocytes; assay type: cell-based; settings: Plasmodium falciparum, 48 h, read-out: Pf Late stage gametocyte %inhibition @ 5 µM
Description: (§1) P. falciparum drug sensitive NF54 (PfNF54) and drug-resistant Dd2 (PfDd2, chloroquine, pyrimethamine and mefloquine resistant) strains were cultured in vitro in human O^+/A^+ erythrocytes (5% hematocrit) in complete medium at 2–5% parasitemia, 37 °C, shaking at 60 rpm under hypoxic conditions (90% N2, 5% O2 and 5% CO2). Immature and mature gametocytes were produced from P. falciparum 3D7elo1-pfs16-CBG99 (kind gift from Pietro Alano, ISS, Italy) ^[1] as described^[2,3] by simultaneously applying nutrient starvation and decreasing hematocrit to induce >97% ring-stage ABS parasites (0.5% parasitemia, 6% hematocrit). Gametocytogenesis was followed with daily media changes (including glucose) and ABS parasites removed with 50 mM N-acetylglucosamine (day 1–4 for stage II/III; days 3–7 for stage IV/V).
(§2) All inhibitors were dissolved in dimethyl sulfoxide (DMSO). Antiplasmodium activity of selected anti-cancer inhibitors was determined on P. falciparum NF54 and Dd2 strains, measuring SYBR Green I fluorescence (485 nm excitation, 538 nm emission) as an indicator of proliferation^[4]. Ring-stage ABS parasites (1% parasitemia, 1% hematocrit) were treated with compounds for 96 h at 37 °C with chloroquine disulphate (0.5 μM) as positive drug control. The activity of the inhibitors was tested against immature (>95% stage II/III) and late-stage (>90% stage IV/V) gametocytes using a luciferase reporter assay on 3D7elo1-pfs16-CBG99 ^[1]. […] Luciferase activity was determined using a non-lysing D-luciferin substrate (1 mM in 0.1 M citrate buffer, pH 5.5, 100 μL) and bioluminescence was detected with a GloMax® - Multi Detection System with Instinct® software.

[3] = test system: multidrug-resistant PfDd2 ABS parasites; test: SYBR Green I proliferation assay, PfDd2 asexual blood stages; assay type: cell-based; settings: Plasmodium falciparum, DD2, read-out: Pf Dd2 ABS IC50
Description: (§3) (B) Antiplasmodial activity of nine anticancer aurora kinase inhibitors (selected based on their PfNF54 ABS activity) against P. falciparum multidrug-resistant ABS parasites (PfDd2 and PfK1). (C) Kinobead competitive inhibition data.
as §1, §2

[4] = Cytotoxicity counter-screening (MTT), CHO; settings: Chinese hamster, CHO cells
Description: (§4) HepG2 and CHO cells were maintained at 37 °C, under a humidified atmosphere of 5% CO2, in DMEM high glucose media (Gibco) supplemented with 10% heat-inactivated FBS and 1% (v/v) Penicillin-Streptomycin antibiotics. […] The supernatant was discarded, and the cell pellet was resuspended in 1 mL DMEM media for cell counting by Trypan Blue. To determine the toxicity, cells were resuspended and seeded at a concentration of 1x10^4 cells/well in a 96-well plate and incubated for 24 h^[9,10]. Cells were treated in duplicate with a 10-fold serial dilution starting at 100 ug/mL of inhibitor in new media. After 48 h incubation, the viable cells were measured using the MTT tetrazolium reduction assay, where sterile 25 µL of a 5 mg/mL MTT was added to each well and incubated for 4 h before the […] formazan crystals were dissolved with 100 µL DMSO (Merck) per well. The absorbance, a measure of intracellular reduction of MTT, was measured at 540 nm (Multiskan GO). Emetine (50 µM) was included as a positive drug control, and the background was subtracted from all data before being normalised to the untreated^[9,10].

[5] = test system: Chinese Hamster Ovary (CHO) cells; test: Cytotoxicity counter-screening (MTT), CHO; settings: CHO CC50/PfNF54 IC50
Description: as §4

[6] = test system: immature (stage II/III) gametocytes, P. falciparum 3D7elo1-pfs16-CBG99; test: Luciferase reporter assay, immature gametocytes; assay type: cell-based, Plasmodium falciparum; settings: 48 h; for inhibition at 5 µM: Plasmodium falciparum, read-out: Pf Early stage gametocyte %inhibition @ 5 µM
Description: as §1, §2

[7] = Cytotoxicity counter-screening (MTT), HepG2; settings: human, HepG2 cells, HepG2 CC50, 48 h, MTT
Description: as §4

[8] = test system: hepatocellular carcinoma (HepG2) cells; test: Cytotoxicity counter-screening (MTT), HepG2; settings: HepG2 CC50/PfNF54 IC50
Description: as §4

[9] = test system: P. berghei liver schizonts in HepG2-A16-CD81EGFP cells; test: P. berghei (PbLuc) liver stage assay; assay type: cell-based; settings: Plasmodium berghei; 48 h, PbLuc; read-out: Pb liver stage IC50
From the text: as §3
Plasmodium berghei (Pb) sporozoites were obtained by dissecting the salivary glands of infected Anopheles stephensi mosquitoes. These were provided by The SporoCore, at the University of Georgia, GA, USA (SporoCore.uga.edu). The parasites utilised a GFP-Lucama1-eef1 reporter line^[5]. These engineered parasites, termed Pb-Luc, were used to infect HepG2-A16-CD81EGFP cells. HepG2-A16-CD81EGFP cells stably transformed to express a GFP-CD81 fusion protein^[6] were cultured at 37 °C in 5% CO2 in DMEM (Invitrogen, Carlsbad, USA) supplemented with 10% FBS (Corning, NY, USA), 1X Pen/Strep/Glu (Thermo Fisher Scientific, USA). Compounds were prepared as 10 mM solutions in DMSO, and 10 nL of each (resulting in a final DMSO concentration of 0.1% per well) was transferred into assay plates using an ECHO 650 (Beckman). Concentrations ranged from 10 µM to 0.5 nM. Atovaquone (0.1 µM) served as a positive control, while 0.1% DMSO was used as a negative control. Liver stage (PbLuc) screening has been previously described^[7]. Human hepatic cells (3 × 10^3; HepG2-A16-CD81-EGFP) suspended in 5 µL of DMEM medium ([…], supplemented with 5% FBS, 5× Pen/Strep/Glu) were seeded in 1536-well plates (Greiner BioOne) using the MultiFlo FX (Agilent) 20 h before infection. PbLuc sporozoites, isolated from the salivary glands of A. stephensi mosquitoes, were filtered twice through a 20 µm nylon pore cell strainer. The sporozoites were resuspended in screening media, counted with a hemocytometer, and diluted to a final concentration of 200 sporozoites per µL. Each well received 1,000 sporozoites in 5 µL, dispensed via the GNF Dispenser II (GNF Systems). […] Luminescence was measured immediately with the Pherastar FSX reader (BMG Labtech). Luminescence values were normalized using the positive and negative controls. EC50 values were calculated with CDD Vault (Burlingame, CA). […]

[10] = test system: HepG2 and CHO cell lines versus PfNF54; test: Selectivity of parasite versus mammalian cell lines; assay type: cell-based; settings: mammalian cell line (CHO/HepG2) CC50 versus PfNF54 IC50; cell line not specified
Description: HepG2 and CHO cells were maintained at 37 °C, under a humidified atmosphere of 5% CO2, in DMEM high glucose media (Gibco) supplemented with 10% heat-inactivated FBS and 1% (v/v) Penicillin-Streptomycin antibiotics. […] The supernatant was discarded, and the cell pellet was resuspended in 1 mL DMEM media for cell counting by Trypan Blue. To determine the toxicity, cells were resuspended and seeded at a concentration of 1x10^4 cells/well in a 96-well plate and incubated for 24 h^[9,10]. Cells were treated in duplicate with a 10-fold serial dilution starting at 100 ug/mL of inhibitor in new media. After 48 h incubation, the viable cells were measured using the MTT tetrazolium reduction assay, where sterile 25 µL of a 5 mg/mL MTT was added to each well and incubated for 4 h before the water-soluble formazan crystals were dissolved with 100 µL DMSO (Merck) per well. The absorbance, a measure of intracellular reduction of MTT, was measured at 540 nm (Multiskan GO). Emetine (50 µM) was included as a positive drug control, and the background was subtracted from all data before being normalised to the untreated^[9,10].

[11] = Plasmodium falciparum, NF54, 96 h, ring-stage ABS, 96 h, SYBR Green I
[12] = ring-stage ABS, 96 h, SYBR Green I

## Cc1csc(-c2nnc(Nc3ccc(Oc4ncccc4-c4ccnc(N)n4)cc3)c3ccccc23)c1 [AMG 900]
[1]; [11]
  IC50: ≥ 5 µM

## COc1cc2ncnc(Nc3ccc(NC(=O)c4ccccc4)cc3)c2cc1OC [Aki II, Aurora Kinase Inhibitor II]
[1]; [12]
  IC50: 2.15 µM

## COc1cc(Nc2ncc3c(n2)-c2ccc(Cl)cc2C(c2c(F)cccc2OC)=NC3)ccc1C(=O)O [Alisertib, Alisertib (MLN8237)]
[1]; [11]
  IC50: ≥ 5 µM

## CN(C)c1ccc(-c2nc3ncc(Cl)c(N4CCN(CC(=O)Nc5nccs5)CC4)c3[nH]2)cc1 [CCT-202, CCT-129202]
[1]; [12]
  IC50: 2.41 µM

## Cc1cc(CN2CCN(c3c(Br)cnc4nc(-c5ccc(N6CCN(C)CC6)cc5)[nH]c34)CC2)no1 [CCT-690, CCT-137690]
[1]; [12]
  IC50: 1.66 µM

## Cc1nn(C)cc1-c1nc2c(N3CCN(Cc4ccc(Cl)cc4)CC3)c(Cl)cnc2[nH]1 [CCT-736, CCT-241736]
[1]; [11]
  IC50: 3.24 µM

## Cc1nc(N)sc1-c1ccnc(Nc2ccc(N3CCOCC3)cc2)n1 [CYC-116]
[1]; [11]
  IC50: 3.09 µM

## CO[C@@H](C(=O)N1Cc2n[nH]c(NC(=O)c3ccc(N4CCN(C)CC4)cc3)c2C1)c1ccccc1 [Danusertib]
[2]
  inhibition at 5 µM: 2.6%
[3]
  IC50: 1.3 µM
[1]; [11]
  IC50: 1.41 µM
[4]
  CC50 at 48 h: 33.2 µM
[5]
  Selectivity index (SI) CHO: 23.50
[6]
  inhibition at 5 µM: 9.5%
[7]
  CC50 at 48 h: 35.1 µM
[8]
  Selectivity index (SI) HepG2: 24.8
[9]
  IC50: 6.22 µM

## CCn1cc(-c2ccnc3[nH]c(-c4cccc(CN(C)C)c4)cc23)c(-c2ccc(NC(=O)N(C)C)cc2)n1 [GSK-916, GSK-1070916]
[2]
  inhibition at 5 µM: 31.5%
[3]
  IC50: 0.404 µM
[1]; [11]
  IC50: 1.18 µM
[4]
  CC50 at 48 h: 5.3 µM
[5]
  Selectivity index (SI) CHO: 4.47
[6]
  Pf Early stage gametocyte %inhibition @ 5 µM: 67,1 ± 7,0%
  inhibition at 5 µM: ~70%
[7]
  CC50 at 48 h: 13.1 µM
[8]
  Selectivity index (SI) HepG2: 11.03
[10]
  selectivity index (SI) towards the parasite: < 10

## Nc1nc(Nc2ccc(S(N)(=O)=O)cc2)nn1C(=O)c1c(F)cccc1F [JNJ, JNJ-7706621]
[1]; [11]
  IC50: 3.31 ± 0.813 µM

## O=C(O)[C@]1(Cc2cccc(Nc3nccs3)n2)CC[C@@H](Oc2cccc(Cl)c2F)CC1 [MK-5108]
[1]; Plasmodium falciparum, NF54, 96 h
  IC50: ≥ 5 µM

## O=C(O)c1ccc(Nc2ncc3c(n2)-c2ccc(Cl)cc2C(c2c(F)cccc2F)=NC3)cc1 [MLN8054]
[1]; [11]
  IC50: ≥ 5 µM

## CC(=O)NCC(=O)N1[C@@H]2CC[C@H]1c1ccc(Nc3ncc(C(F)(F)F)c(NC4CCC4)n3)cc12 [PF-35, PF-03814735]
[1]; [12]
  IC50: 2.12 ± 1.56 µM

## Cc1cc(Nc2nn(-c3ccccc3)c(=O)c3ccccc23)n[nH]1 [PH-p, Phthalazinone pyrazole]
[1]; [12]
  IC50: 2.72 µM

## CCc1cccc(CC)c1NC(=O)N1Cc2n[nH]c(NC(=O)c3ccc(N4CCN(C)CC4)cc3)c2C1 [PHA-32, PHA-680632]
[1]; [11]
  IC50: 3.13 µM

## O=C(Nc1cccc(Cl)c1)Nc1ncc(CCNc2ncnc3ccsc23)s1 [SNS-314, SNS-314 Mesylate]
[1]; [11]
  IC50: 1.44 µM
